Data set [1] concerns HCC1954. Nature of the data set: Antiproliferative activity against human HCC1954 cells measured after 72 hrs by SRB assay. In kind it is functional, cell-based. The settings on record: HCC1954, 72 h.
The next data set relates to MDA-MB-231. Kind of data set: Antiproliferative activity against human MDA-MB-231 cells measured after 72 hrs by MTT assay. The following applies: MDA-MB-231, 72 h. In kind it is functional, cell-based. (In general: Tetrazolium dyes change colour on reduction, which living cells bring about.)
A further data set concerns MCF7. Nature of the data set: Antiproliferative activity against human MCF7 cells measured after 72 hrs by MTT assay. It counts as functional, cell-based. The following applies: MCF7, 72 h.
Data set [2] has as its system HCC1954. Kind of data set: Antiproliferative activity against human HCC1954 cells measured after 72 hrs by MTT assay. In kind it is functional, cell-based. The following applies: HCC1954, 72 h.
Data set [3] concerns the target T1, Heat shock protein HSP90 (Homo sapiens) (UniProt P07900+P08238). Kind of data set: Inhibition of HSP90 in human HCC1954 cells assessed as down regulation of AKT expression at 10 to 20 uM measured after 72 hrs by Western blot analysis. It counts as cell-based. The settings on record: dose 10-20 µM. (Immunoblotting shows a protein as a band on a membrane.)
Data set [4] is described as follows: Cytotoxicity against human MCF-10A cells measured after 72 hrs by MTT assay. It counts as toxicity, cell-based.
In data set [5] the test system is HCC1954. Kind of data set: Induction of apoptosis in human HCC1954 cells assessed as increase in cleaved caspase-9 expression at 10 to 20 uM measured after 72 hrs by Western blot analysis. In kind it is functional, cell-based. The settings on record: dose 10-20 µM.
The test system of data set [6] is HCC1954. Nature of the data set: Cell cycle arrest in human HCC1954 cells assessed as decrease in cell accumulation at G1 phase at 10 to 20 uM measured after 48 hrs by propidium iodide staining based flow cytometry. In kind it is functional. The settings on record: dose 10-20 µM. For orientation: A flow cytometer gives signals particle by particle.
The target in data set [7] is T1, Heat shock protein HSP90 (Homo sapiens). Nature of the data set: Inhibition of HSP90 in human HCC1954 cells assessed as down regulation of HER2 expression at 10 to 20 uM measured after 72 hrs by Western blot analysis. It counts as cell-based. The settings on record: dose 10-20 µM.
Data set [8] relates to HCC1954. Kind of data set: Induction of apoptosis in human HCC1954 cells assessed as reduction in NF-kappaB expression at 10 to 20 uM measured after 72 hrs by Western blot analysis. It counts as functional, cell-based. The following applies: dose 10-20 µM.
Data set [9] has as its target T1, Heat shock protein HSP90 (Homo sapiens). Kind of data set: Inhibition of HSP90 in human HCC1954 cells assessed as down regulation of ERK1/2 expression at 10 to 20 uM measured after 72 hrs by Western blot analysis. In kind it is cell-based. The following applies: dose 10-20 µM.
The test system of data set [10] is HCC1954. Kind of data set: Cell cycle arrest in human HCC1954 cells assessed as cell accumulation at sub-G1 phase at 20 uM measured after 48 hrs by propidium iodide staining based flow cytometry relative to control. It counts as functional.
Data set [11] concerns HCC1954. Kind of data set: Induction of apoptosis in human HCC1954 cells assessed as increase in cleaved PARP expression at 10 to 20 uM measured after 72 hrs by Western blot analysis. The settings on record: dose 10-20 µM. In kind it is functional, cell-based.
The nature of data set [12]: Effect on HSP70 expression in human HCC1954 cells at 10 to 20 uM measured after 72 hrs by Western blot analysis. The following applies: hcc1954, 72 h, dose 10-20 µM. In kind it is toxicity, cell-based.
Data set [13] addresses T1, Heat shock protein HSP90 (Homo sapiens). Nature of the data set: Inhibition of HSP90 in human HCC1954 cells assessed as down regulation of EGFR expression at 10 to 20 uM measured after 72 hrs by Western blot analysis. In kind it is cell-based. The settings on record: dose 10-20 µM.
In data set [14] the test system is HCC1954. Nature of the data set: Cell cycle arrest in human HCC1954 cells assessed as increase in cell accumulation at sub-G1 phase measured after 48 hrs by propidium iodide staining based flow cytometry. It counts as functional. The settings on record: dose 10-20 µM, DDE = dose-dependent effect.
Data set [15] has as its target T1, Heat shock protein HSP90 (Homo sapiens). Kind of data set: Inhibition of HSP90 in human HCC1954 cells assessed as reduction in AKT phosphorylation at 10 to 20 uM measured after 72 hrs by Western blot analysis. In kind it is cell-based. The following applies: dose 10-20 µM.

Molecules are shown by their SMILES. Calls of active or inactive are those of the source. The calls are words filed in the database; no cut-off is given here.

On to `COc1cc(/C=C(\C#N)C(N)=O)cc(CSc2nc3ccccc3s2)c1O`, for which the IC50 (in general, the concentration that gives 50% inhibition) in the data set on HCC1954 [1] was determined as 30 µM.

On to `CC1(C)C/C(=N\OC(=O)c2cccc(NC(=O)c3cccc(F)c3)c2)c2c(-c3ccc(F)cc3)noc2C1`, for which the IC50 is over 25 µM in the data set on MDA-MB-231, 5.2 µM in the data set on MCF7 and over 25 µM in the data set with HCC1954 [2].

`O=C(Nc1cccc(C(=O)O/N=C2\CCCc3onc(-c4cccc(F)c4)c32)c1)c1cccc(F)c1`: the figures for the IC50 in the data set with MDA-MB-231, in the data set with MCF7 and in the data set with HCC1954 [2] were 8.7 µM, 4.7 µM and over 25 µM, respectively.

`O=C(Nc1cccc(C(=O)O/N=C2\CCCc3noc(-c4ccc(F)cc4)c32)c1)c1cccc(F)c1`: the IC50 with MDA-MB-231, with MCF7 and with HCC1954 [2] was over 25 µM each time.

With `COc1ccc(-c2onc3c2/C(=N/OC(=O)c2cccc(NC(=O)c4cccc(F)c4)c2)CC(C)(C)C3)cc1OC`, the IC50 with MDA-MB-231, in the data set with MCF7 and in the data set with HCC1954 [2] was over 25 µM each time.

With `COc1cc(-c2onc3c2/C(=N/OC(=O)c2cccc(NC(=O)c4cccc(F)c4)c2)CC(C)(C)C3)ccc1O`, the IC50 in the data set on MDA-MB-231 was over 25 µM; in the data set with HCC1954 [1] it was 6 µM; in the data set with MCF7, 6.2 µM; with HCC1954 [2] it was 6 µM. In addition, the inhibition entry in data set [3], in data set [7], in [9], in data set [13] and in [15] was “Active” each time. This molecule also showed an IC50 at 72 h in data set [4] of over 30 µM. Moreover, the result in the data set with HCC1954 [5], in the data set with HCC1954 [6], with HCC1954 [8] and in the data set with HCC1954 [11] was Active. Moreover, the Activity in the data set with HCC1954 [10] is 50%; in data set [12], “Non-Toxic”; with HCC1954 [14], “Dde”.

With `O=C(Nc1cccc(C(=O)O/N=C2\CCCc3noc(-c4cccc(F)c4)c32)c1)c1cccc(F)c1`, the 50% inhibitory concentration (IC50) in the data set with MDA-MB-231 is 9.3 µM; in the data set with MCF7, over 25 µM; with HCC1954 [2], over 25 µM.

Turning to `CC1(C)C/C(=N\OC(=O)c2ccccc2NC(=O)c2ccccc2F)c2c(-c3ccc(F)cc3)noc2C1`, the IC50 with MDA-MB-231, in the data set with MCF7 and with HCC1954 [2] was over 25 µM each time.

Take `O/N=C1\CCCc2onc(-c3cccc(F)c3)c21`: the IC50 in the data set with MDA-MB-231, with MCF7 and in the data set with HCC1954 [2] was over 25 µM in each case.

On to `Nc1cccc(C(=O)Nc2cccc(C(=O)O/N=C3\CCCc4onc(-c5ccc(F)cc5)c43)c2)c1`, for which the concentration for half-maximal inhibition (IC50) in the data set on MDA-MB-231, in the data set with MCF7 and in the data set on HCC1954 [2] was over 25 µM throughout.

For the molecule `CC(=O)Nc1ccccc1C(=O)O/N=C1\CCCc2noc(-c3ccc(F)cc3)c21`, the IC50 with MDA-MB-231, with MCF7 and in the data set on HCC1954 [2] was over 25 µM each time.

For the molecule `O=C(Nc1cccc(C(=O)O/N=C2\CCCc3onc(-c4ccccc4F)c32)c1)c1cccc(F)c1`, the IC50 was 6.2 µM in the data set with MDA-MB-231, over 25 µM in the data set with MCF7 and over 25 µM in the data set with HCC1954 [2].

With `CC1(C)C/C(=N\OC(=O)c2cccc(NC(=O)c3cccc(F)c3)c2)c2c(noc2-c2cccc(F)c2)C1`, the IC50 in the data set with MDA-MB-231, with MCF7 and with HCC1954 [2] was over 25 µM each time.

For the molecule `O=C(Nc1ccccc1C(=O)O/N=C1\CCCc2noc(-c3ccc(F)cc3)c21)c1ccccc1F`, the IC50 with MDA-MB-231, in the data set with MCF7 and in the data set with HCC1954 [2] was over 25 µM each time.

Consider `O=C(O)c1cccc(NC(=O)c2cccc(F)c2)c1`, for which the IC50 with MDA-MB-231, in the data set with MCF7 and in the data set on HCC1954 [2] was over 25 µM each time.

As to `COc1ccc(-c2noc3c2/C(=N/OC(=O)c2cccc(NC(=O)c4cccc(F)c4)c2)CCC3)cc1OC`, the IC50 with MDA-MB-231, in the data set with MCF7 and in the data set on HCC1954 [2] was over 25 µM in each case.

Turning to `O=C(Nc1ccccc1C(=O)O/N=C1\CCCc2onc(-c3ccc(F)cc3)c21)c1cccc(F)c1`, the IC50 in the data set on MDA-MB-231, in the data set on MCF7 and with HCC1954 [2] was over 25 µM each time.

As for `CC1(C)C/C(=N\OC(=O)c2cccc(NC(=O)c3cccc(F)c3)c2)c2c(-c3cccc(F)c3)noc2C1`, the IC50 was over 25 µM with MDA-MB-231, 25 µM with MCF7 and over 25 µM in the data set on HCC1954 [2].

Regarding `COc1ccc(-c2noc3c2/C(=N/OC(=O)c2cccc(NC(=O)c4cccc(N)c4)c2)CCC3)cc1OC`, the IC50 in the data set with MDA-MB-231 is over 25 µM; in the data set with MCF7, 25 µM; with HCC1954 [2] it was over 25 µM.

Regarding `CC(C)(C)OC(=O)Nc1cccc(C(=O)Nc2cccc(C(=O)O/N=C3\CCCc4onc(-c5ccc(F)cc5)c43)c2)c1`, the IC50 in the data set on MDA-MB-231, in the data set with MCF7 and in the data set on HCC1954 [2] was over 25 µM in each case.

As for `Nc1cccc(C(=O)Nc2cccc(C(=O)O/N=C3\CCCc4noc(-c5ccc(F)cc5)c43)c2)c1`, the IC50 with MDA-MB-231, in the data set with MCF7 and with HCC1954 [2] was over 25 µM each time.

Consider `COc1ccc(-c2noc3c2/C(=N/OC(=O)c2cccc(NC(=O)c4cccc(F)c4)c2)CC(C)(C)C3)cc1OC`, for which the IC50 in the data set on MDA-MB-231, in the data set with MCF7 and with HCC1954 [2] was over 25 µM throughout.

Take `COc1cccc(C(=O)Nc2cccc(C(=O)O/N=C3\CCCc4onc(-c5ccc(OC)c(OC)c5)c43)c2)c1`: the IC50 in the data set with MDA-MB-231, with MCF7 and with HCC1954 [2] was over 25 µM each time.

The values are drawn from ChEMBL document CHEMBL5143535, “Novel O-acylated (E)-3-aryl-6,7-dihydrobenzisoxazol-4(5H)-one oximes targeting HSP90-HER2 axis in breast cancer cells” (Bioorg Med Chem, 2022).
